According to PMC6974622, “DeepMalaria: Artificial Intelligence Driven Discovery of Potent Antiplasmodials” (Frontiers in Pharmacology, 2020):
“Also recorded” adds a separate entry of the source.

Tests used:
[1] = tested on: Pf (DD2); assay: Validation dataset: previously performed HTS at University of Central Florida, Chakrabarti Laboratory; format: cell-based, Plasmodium falciparum; conditions: class label
Procedure: The validation dataset consists of the results from previously performed HTS in University of Central Florida at the Chakrabarti Laboratory, consisting of natural-products, kinase inhibitors from commercial vendors Asinex (Winston-Salem, NC)and ChemDiv (San Diego, CA) libraries. This dataset contains 4,497 molecules and their inhibition property. […] Using this external validation dataset, the realistic capabilities of the model are evaluated in the validation process. The raw data supporting the conclusions of this manuscript will be made available by the authors, without any restriction, to any qualified researcher (Supplementary Material 4).

[2] = tested on: multidrug resistant P. falciparum strain Dd2; assay: SYBR Green I Plasmodium growth inhibition assay (fixed concentration screen and EC50); format: cell-based, Plasmodium falciparum; conditions: Plasmodium falciparum; for inhibition at 1 µM: Pf Dd2, 1 µM, 72 h, read-out: Inhibition One-point (%)
Procedure: P. falciparum cultures were maintained under standard culture conditions in RPMI 1640 medium supplemented with 25 mM HEPES, pH 7.4, 26 mM NaHCO3, 2% dextrose, 15 mg/L hypoxanthine, 25 mg/L gentamycin, and 0.5% Albumax II maintained at 37°C in 5% CO2 and 95% air. Initially, a fixed concentration phenotypic screening was performed against multidrug resistant P. falciparum strain Dd2 (resistant to chloroquine, pyrimethamine, and mefloquine) using a SYBR Green I assay ([Johnson et al., 2007]; [Vossen et al., 2010]). An EVO-150 robotic liquid handler (Tecan, Morrisville, NC) was used to aliquot compounds at a final concentration of 1 µM followed by addition of culture to 96-well plates (Greiner, Monroe, NC) at 1% parasitemia, 2% hematocrit. Plates were incubated for 72 h at 37°C in a humidified atmosphere 5% CO2/95% air prior to freezing. Plates were subsequently thawed and 1X SYBR Green I was added with lysis buffer (20 mM Tris-HCl, 0.08% saponin, 5 mM EDTA, 0.8% Triton X-100). After incubation at room temperature in dark for 1 h, the fluorescent emission was measured at excition and emission wavelengths of 485 nm and 530 nm, respectively, using a BioTek Synergy neo2 (Winooski, VT) plate reader. […] Curve fitting was performed using GraphPad Prism and EC50 value was determined for each compound.

[3] = tested on: human hepatoma cell line HepG2; assay: MTS based cytotoxicity assay (counter-screen for selectivity); format: cell-based; conditions: 48 h
Procedure: Selectivity was determined by counter-screening against human hepatoma cell line HepG2 in a MTS (3-(4,5-Dimethylthiazol-2-yl)-5-(3-carboxymethoxyphenyl)-2-(4-sulfophenyl)-2H-tetrazolium) based cytotoxicity assay (CellTiter 96® Aqueous One, Promega, Madison, WI) ([Riss et al., 2004]). Briefly, microtiter plates were seeded with 1,500 cells per well in a 384 well plate and incubated for 24 h at 37°C in 5% CO2/95% air atmosphere. The next day, compounds were added at seven different serially diluted concentrations starting at 25 µM d incubated for additional 48 h at stated conditions. MTS solution was next added to each well, incubated for additional 3 h at 37°C, and absorbance was read at 490 nm using BioTek Synergy neo 2 plate reader. Untreated cells served as control. Curve fitting was performed using GraphPad Prism and EC50 value was determined.

[4] = tested on: P. falciparum Dd2; assay: Stage-specific activity assay (Giemsa smears, YOYO-1 flow cytometry); format: cell-based, Plasmodium falciparum; conditions: synchronized Dd2, compound at 3X EC50 added at 6, 18, 30, 42 hpi
Procedure: P. falciparum Dd2 cell line was synchronized using a combination of 5% sorbitol and magnetic column separation as described ([Roberts et al., 2016]). Cultures at 2% parasitemia and 2% hematocrit were added to microtiter plate wells and measurements began 6 h post-invasion (6 hpi). Hit compounds were added at 3X EC50 concentration at specified time points. Controls are DHA (3X EC50) and untreated cultures. Giemsa-stained thin smears were made for each time point and an aliquot of the culture was fixed for flow cytometric analysis using 0.04% glutaraldehyde in PBS. After fixing and aspirating, cells were permeabilized with 0.25% Triton-100 followed by treatment with RNase (0.05 mg/ml) for 3 h. Next, YOYO 1 (10.24 µM) fluorescent dye was added and samples were analyzed ([Bouillon et al., 2013]) using Beckman Coulter (Indianapolis, IN) CytoFlex S flowcytometer.

[5] = tested on: Pf Dd2; assay: Rate of killing determination; format: cell-based, Plasmodium falciparum; conditions: synchronized Dd2, exposure 6 or 12 h, parasitemia tracked for 6 days
Procedure: Pf Dd2 culture was synchronized as described ([Roberts et al., 2016]), plated into 24 well plates at 2% parasitemia and 2% hematocrit at 6 hpi. […] Each well was exposed to the inhibitor for either 6 or 12 h using dihydroartemisinin (DHA) (25 µM) and untreated culture as controls. After washing the compounds off, the media was changed twice a day. The parasitemia was tracked for 6 days after addition of compounds. Thin smears were stained with Giemsa, and parasitemia was counted using microscope.

Compound | DD2 [1] | inhibition at 1 µM [2] [%] | EC50 ([2]; Pf Dd2, 72 h, spread given in nM) [nM] | EC50 [3] [µM] | Stage specific activity [4] | Rate of killing [5]
COc1ccc(-c2nc3n(n2)C(c2cccnc2)C2=C(CC(C)(C)CC2=O)N3)cc1 (centres unmarked) | 0 (zero if otherwise) | – | – | – | – | –
C=CCN1C(=O)COc2ccc(NC(=O)c3oc4cc(C)ccc4c3C)cc21 | 0 (zero if otherwise) | – | – | – | – | –
C=CCOC(=O)C1=C(C)NC(=S)NC1c1ccc(C(C)(C)C)cc1 (centres unmarked) | 0 (zero if otherwise) | – | – | – | – | –
Cc1cc(C)n(Cc2c(C(=O)N3CCC4(CCCCOC[C@@H]5CCCN5C(=O)c5cccc(c5)OC4)CC3)noc2C)n1 [DC-5921, CC1=NN(CC2=C(C)ON=C2C(=O)N2CCC3(CC2)CCCCOC[C@@H]2CCCN2C(=O)C2=CC(OC3)=CC=C2)C(C)=C1] | – | 90 | 0.9 | > 25 | active in early stages, late Troph and early schizont; also recorded: inhibit the early stages | –
CCc1nc2ccccc2c(C(=O)N2CCC3(CCCCOCCNC(=O)c4ccccc4OC3)CC2)c1C [DC-5931, CCC1=NC2=C(C=CC=C2)C(C(=O)N2CCC3(CC2)CCCCOCCNC(=O)C2=C(OC3)C=CC=C2)=C1C] | – | 80 | – | > 25 | mostly active in early stages; also recorded: inhibit the early stages | –
CN1CCOc2ccccc2CCCCCC2(CCN(C(=O)[C@@H](N)c3ccccc3)CC2)C1=O [DC-9235, CN1CCOC2=C(CCCCCC3(CCN(CC3)C(=O)[C@@H](N)C3=CC=CC=C3)C1=O)C=CC=C2] | – | 92 | – | > 25 | – | –
CC(C)C[C@@H](N)C(=O)N1CCC2(CCCCCc3ccccc3OCCN(C)C2=O)CC1 [DC-9236, CC(C)C[C@@H](N)C(=O)N1CCC2(CC1)CCCCCC1=C(OCCN(C)C2=O)C=CC=C1] | – | 98 | – | 6.5 | active in late Troph and early Schizont; also recorded: inhibits primarily the mature schizonts | higher elimination in the second life cycle; also recorded: inhibition in the second developmental cycle of Pf causing delayed death
CCC1C2=NC(Cc3ccccc3)=C(O2)N(Cc2ccccc2)Cc2cn(nn2)CCCCN1Cc1ccccc1OCCN(C)C (centres unmarked) [DC-9237, CCC1N(CC2=CC=CC=C2OCCN(C)C)CCCCN2C=C(CN(CC3=CC=CC=C3)C3=C(CC4=CC=CC=C4)N=C1O3)N=N2] | – | 95 | – | 17 | inhibits all asexual stages of Plasmodium falciparum; also recorded: inhibits all asexual blood stages of Dd2 including the early ring stage | fast-acting; also recorded: inhibited growth at all asexual stages after 6 h of exposure and parasite population did not resume growth even after 6 days
CN1CCOc2ccccc2CCCCCC2(CCN(C(=O)[C@H](N)c3ccccc3)CC2)C1=O [DC-9239, CN1CCOC2=C(CCCCCC3(CCN(CC3)C(=O)[C@H](N)C3=CC=CC=C3)C1=O)C=CC=C2] | – | 79 | – | 24.2 | – | –
O=C1NC(=S)S/C1=C\c1ccc(O)cc1 [O=C1NC(=S)S/C1=C\c1ccc(O)cc1] | 0 (zero if otherwise) | – | – | – | – | –
